Assay results: patent US8916567B2, “Certain crystalline hydrates, pharmaceutical compositions thereof and methods for preparation and use thereof” (Universal Technology Alliance, Inc., priority 2009, dated 2014)
Like-named read-outs stand apart in the source and are kept apart here.

Key:
Type in all cases: cell-based
[1] = tested on: Staphylococcus aureus; experiment: Minimum inhibitory concentration (MIC) in vitro, agar dilution method, quality control strain; conditions: Staphylococcus aureus, ATCC27853, strain S. AT C C25923 (Table 7 No. 1); read-out: MIC
From the text: (§1) Hydrates Samples: • The 1/2 hydrates prepared according to Example 2; • Content (purity % wt): 99.0%; • The 1/12 hydrates prepared according to Example 253; • Content (purity % wt): 98.9%; • The 2/7 hydrates prepared according to Example 106; • Content (purity % wt): 98.8%; • The 2/5 hydrates prepared according to Example 162; • Content (purity % wt): 99.0%; • The 3/4 hydrates prepared according to Example 337; • Content (purity % wt): 98.8%; • Preparation: dissolved in DMSO, and further diluted with sterile distilled water to desired concentration. • The hydrates samples were supplied by Sichuan Beilike Biotechnology LTD.
(§2) Anhydrous Sample: • The anhydrous compounds prepared according to Example 1. • Content (purity % wt): 98.6%; • Preparation: dissolved in DMSO, and further diluted with sterile distilled water to desired concentration; • The anhydrous sample was supplied by Sichuan Beilike Biotechnology LTD.
(§3) Control Samples • Vancomycin: provided by Sichuan Beilike Biotechnology LTD, purchased from Eli Lilly Japan K.K. • Lot No.: WM16151 (production date: Apr. 10, 2007, expiration date: Apr. 9, 2009). • Specification: 500 mg/bottle; solubility (physicochemical properties): soluble in water. • Linezolid (LZ): provided by Sichuan Beilike Biotechnology LTD.
(§4) Bacteria Strains • Clinically isolated strains: clinically isolated bacterial pathogens collected in Sichuan and Beijing areas from March 2007 to May 2008. • Species include: Staphylococcus aureus MRSA, Staphylococcus aureus MSSA, S. epidermidis MRSE, S. epidermidis MSSE, E. feacalis, and E. feacium, a total of 51 strains. • Quality control strains: Staphylococcus aureus […] strain kept in Sichuan Industrial Institute of Antibiotics, purchased from the medical testing center of the Ministry of Health, China.
(§5) Experimental Method: • Measurement of the minimum inhibitory concentration (MIC) in vitro: • The minimum inhibitory concentration (MIC) of each test sample against test strains was measured by using the agar dilution method recommended by the U.S. National Committee for Clinical Laboratory Standards (CLSI/NCCIs).
(§6) Based on the CLSI/NCCL's testing standard with respect to vancomycin and linezolid (see Table 6), the minimum inhibitory concentration (MIC) values of every strain were reported, and the MIC50 (the concentration that inhibits 50% of the different strains of bacteria), MIC90 (the concentration that inhibits 90% of the different strains of bacteria), and MICrange (the range of the MIC value of the tested strains) were observed.

[2] = tested on: E. feacium; experiment: Minimum inhibitory concentration (MIC) in vitro, agar dilution method
From the text: as §1, §2, §3, §4, §5, §6

[3] = tested on: E. feacalis; experiment: as above
From the text: as §1, §2, §3, §4, §5, §6

[4] = tested on: Staphylococcus aureus MRSA; experiment: as above; conditions: for MIC: read-out: MIC
From the text: as §1, §2, §3, §4, §5, §6

[5] = tested on: Staphylococcus aureus MSSA; experiment: as above; conditions: for MIC: read-out: MIC
From the text: as §1, §2, §3, §4, §5, §6

[6] = tested on: S. epidermidis MRSE; experiment: as above; conditions: for MIC: read-out: MIC
From the text: as §1, §2, §3, §4, §5, §6

[7] = tested on: S. epidermidis MSSE; experiment: as above; conditions: for MIC: read-out: MIC
From the text: as §1, §2, §3, §4, §5, §6

CC(=O)NC[C@H]1CN(c2ccc(N3CCOCC3)c(F)c2)C(=O)O1 [Linezolid, reference compound]
1 to 2 µg/mL: MICrange ([3]; E. feacalis (5 strains), clinically isolated) | MICrange ([4]; S. MRSA (10 strains), clinically isolated) | MICrange ([5]; S. MSSA (11 strains), clinically isolated)
0.5 µg/mL: MIC ([6]; Staphylococcus epidermidis, MRSE, strain S. ep MRSE101 (Table 8 No. 7)) | MIC ([7]; Staphylococcus epidermidis, strain S. ep MSSE87 (Table 7 No. 23)) | MIC ([7]; Staphylococcus epidermidis, strain S. ep MSSE116 (Table 7 No. 25))
4 µg/mL: MIC90 [2] | MIC ([2]; strain Efm N4 (Table 8 No. 24))
1 µg/mL: MIC ([2]; strain Efm 98 (Table 8 No. 21)) | MIC ([2]; strain Efm N3 (Table 8 No. 23)) | MIC50 [3] | MIC ([3]; strain Efa 54 (Table 8 No. 20)) | MIC ([3]; strain Efa 116 (Table 8 No. 16)) | MIC ([3]; strain Efa 907 (Table 8 No. 19)) | MIC ([3]; strain Efa 3006 (Table 8 No. 18)) | MIC ([4]; Staphylococcus aureus, MRSA, strain S. MRSA 29 (Table 7 No. 15)) | MIC ([4]; Staphylococcus aureus, MRSA, strain S. MRSA 101 (Table 7 No. 14)) | MIC ([4]; Staphylococcus aureus, MRSA, strain S. MRSA B143 (Table 7 No. 19)) | MIC ([4]; Staphylococcus aureus, MRSA, strain S. MRSA B617 (Table 7 No. 18)) | MIC ([5]; Staphylococcus aureus, MSSA, strain S. MSSA 466 (Table 7 No. 8)) | MIC50 ([6]; Staphylococcus epidermidis, MRSE, S. ep MRSE (10 strains), clinically isolated, read-out: MIC50) | MIC ([6]; Staphylococcus epidermidis, MRSE, strain S. ep MRSE4 (Table 8 No. 9)) | MIC ([6]; Staphylococcus epidermidis, MRSE, strain S. ep MRSE20 (Table 8 No. 6)) | MIC ([6]; Staphylococcus epidermidis, MRSE, strain S. ep MRSE105 (Table 8 No. 11)) | MIC ([6]; Staphylococcus epidermidis, MRSE, strain S. ep MRSE140 (Table 8 No. 14)) | MIC ([6]; Staphylococcus epidermidis, MRSE, strain S. ep MRSE142 (Table 8 No. 12)) | MIC ([6]; Staphylococcus epidermidis, MRSE, strain S. ep MRSE210 (Table 8 No. 15)) | MIC ([6]; Staphylococcus epidermidis, MRSE, strain S. ep MRSE211 (Table 8 No. 8)) | MIC50 ([7]; Staphylococcus epidermidis, S. ep MSSE (10 strains), clinically isolated, read-out: MIC50) | MIC ([7]; Staphylococcus epidermidis, strain S. ep MSSE113 (Table 7 No. 24)) | MIC ([7]; Staphylococcus epidermidis, strain S. ep MSSE119 (Table 7 No. 27)) | MIC ([7]; Staphylococcus epidermidis, strain S. ep MSSE142 (Table 7 No. 26)) | MIC ([7]; Staphylococcus epidermidis, strain S. ep MSSE153 (Table 8 No. 1))
0.5 to 2 µg/mL: MICrange ([6]; S. ep MRSE (10 strains), clinically isolated) | MICrange ([7]; S. ep MSSE (10 strains), clinically isolated)
2 µg/mL: MIC [1] | MIC50 [2] | MIC ([2]; strain Efm 171 (Table 8 No. 25)) | MIC ([2]; strain Efm 197 (Table 8 No. 22)) | MIC90 [3] | MIC ([3]; strain Efa 33748 (Table 8 No. 17)) | MIC50 ([4]; Staphylococcus aureus, MRSA, S. MRSA (10 strains), clinically isolated, read-out: MIC50) | MIC90 ([4]; Staphylococcus aureus, MRSA, S. MRSA (10 strains), clinically isolated, read-out: MIC90) | MIC ([4]; Staphylococcus aureus, MRSA, strain S. MRSA 201 (Table 7 No. 13)) | MIC ([4]; Staphylococcus aureus, MRSA, strain S. MRSA B27 (Table 7 No. 21)) | MIC ([4]; Staphylococcus aureus, MRSA, strain S. MRSA B105 (Table 7 No. 17)) | MIC ([4]; Staphylococcus aureus, MRSA, strain S. MRSA B151 (Table 7 No. 20)) | MIC ([4]; Staphylococcus aureus, MRSA, strain S. MRSA B164 (Table 7 No. 16)) | MIC ([4]; Staphylococcus aureus, MRSA, strain S. MRSA B199 (Table 7 No. 22)) | MIC50 ([5]; Staphylococcus aureus, MSSA, S. MSSA (11 strains), clinically isolated, read-out: MIC50) | MIC90 ([5]; Staphylococcus aureus, MSSA, S. MSSA (11 strains), clinically isolated, read-out: MIC90) | MIC ([5]; Staphylococcus aureus, MSSA, strain S. MSSA 123 (Table 7 No. 3)) | MIC ([5]; Staphylococcus aureus, MSSA, strain S. MSSA 187 (Table 7 No. 7)) | MIC ([5]; Staphylococcus aureus, MSSA, strain S. MSSA 195 (Table 7 No. 6)) | MIC ([5]; Staphylococcus aureus, MSSA, strain S. MSSA 195 (Table 7 No. 12)) | MIC ([5]; Staphylococcus aureus, MSSA, strain S. MSSA 201 (Table 7 No. 11)) | MIC ([5]; Staphylococcus aureus, MSSA, strain S. MSSA 232 (Table 7 No. 2)) | MIC ([5]; Staphylococcus aureus, MSSA, strain S. MSSA 275 (Table 7 No. 10)) | MIC ([5]; Staphylococcus aureus, MSSA, strain S. MSSA 519 (Table 7 No. 9)) | MIC ([5]; Staphylococcus aureus, MSSA, strain S. MSSA 520 (Table 7 No. 4)) | MIC ([5]; Staphylococcus aureus, MSSA, strain S. MSSA 580 (Table 7 No. 5)) | MIC90 ([6]; Staphylococcus epidermidis, MRSE, S. ep MRSE (10 strains), clinically isolated, read-out: MIC90) | MIC ([6]; Staphylococcus epidermidis, MRSE, strain S. ep MRSE87 (Table 8 No. 13)) | MIC ([6]; Staphylococcus epidermidis, MRSE, strain S. ep MRSE90 (Table 8 No. 10)) | MIC90 ([7]; Staphylococcus epidermidis, S. ep MSSE (10 strains), clinically isolated, read-out: MIC90) | MIC ([7]; Staphylococcus epidermidis, strain S. ep MSSE88 (Table 8 No. 5)) | MIC ([7]; Staphylococcus epidermidis, strain S. ep MSSE118 (Table 8 No. 2)) | MIC ([7]; Staphylococcus epidermidis, strain S. ep MSSE137 (Table 8 No. 4)) | MIC ([7]; Staphylococcus epidermidis, strain S. ep MSSE140 (Table 8 No. 3))
1 to 4 µg/mL: MICrange ([2]; E. feacium (5 strains), clinically isolated)
